According to patent US9624214B2, “Amino-substituted imidazo[1,2-a]pyridinecarboxamides and their use” (BAYER PHARMA AKTIENGESELLSCHAFT, priority 2012, dated 2017):
Counter-ions that a name gives are not always drawn.

Biological target: T1, recombinant guanylate cyclase reporter cell line (Rattus norvegicus, UniProt P19686+P20595)
T1 construct: expressed in transfected cells
T1 sequence (P20595 1-619): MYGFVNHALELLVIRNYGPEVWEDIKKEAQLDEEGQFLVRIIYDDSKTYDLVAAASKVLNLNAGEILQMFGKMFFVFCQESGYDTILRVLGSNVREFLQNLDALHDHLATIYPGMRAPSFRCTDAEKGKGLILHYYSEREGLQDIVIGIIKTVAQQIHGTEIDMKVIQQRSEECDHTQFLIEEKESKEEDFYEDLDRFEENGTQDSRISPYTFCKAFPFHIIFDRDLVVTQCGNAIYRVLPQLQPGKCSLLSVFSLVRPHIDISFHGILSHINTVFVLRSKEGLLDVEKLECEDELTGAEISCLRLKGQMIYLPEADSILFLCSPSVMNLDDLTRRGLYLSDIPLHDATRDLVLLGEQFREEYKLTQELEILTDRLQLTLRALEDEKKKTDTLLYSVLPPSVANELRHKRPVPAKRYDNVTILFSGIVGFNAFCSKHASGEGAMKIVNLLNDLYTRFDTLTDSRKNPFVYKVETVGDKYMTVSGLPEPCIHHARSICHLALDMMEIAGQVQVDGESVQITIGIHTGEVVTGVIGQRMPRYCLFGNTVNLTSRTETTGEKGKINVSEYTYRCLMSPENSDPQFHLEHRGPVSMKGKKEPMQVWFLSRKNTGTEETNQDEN
T1 sequence (P19686 1-690): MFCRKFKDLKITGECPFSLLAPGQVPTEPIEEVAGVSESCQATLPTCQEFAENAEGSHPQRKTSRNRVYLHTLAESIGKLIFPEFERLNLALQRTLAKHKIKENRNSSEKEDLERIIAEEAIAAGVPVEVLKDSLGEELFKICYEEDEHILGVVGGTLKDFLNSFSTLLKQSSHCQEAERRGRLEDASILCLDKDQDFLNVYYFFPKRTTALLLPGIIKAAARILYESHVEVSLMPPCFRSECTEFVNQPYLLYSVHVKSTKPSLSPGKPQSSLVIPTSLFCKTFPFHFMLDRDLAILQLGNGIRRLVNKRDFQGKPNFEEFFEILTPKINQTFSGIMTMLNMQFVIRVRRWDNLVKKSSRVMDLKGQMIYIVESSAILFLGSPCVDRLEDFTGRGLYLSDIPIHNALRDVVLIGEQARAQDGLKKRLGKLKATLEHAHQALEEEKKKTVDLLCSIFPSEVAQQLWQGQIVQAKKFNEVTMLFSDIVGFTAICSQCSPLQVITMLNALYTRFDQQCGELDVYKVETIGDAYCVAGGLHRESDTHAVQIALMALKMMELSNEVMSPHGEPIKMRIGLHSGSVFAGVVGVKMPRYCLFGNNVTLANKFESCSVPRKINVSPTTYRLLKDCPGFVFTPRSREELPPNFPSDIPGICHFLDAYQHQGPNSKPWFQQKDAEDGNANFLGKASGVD
Experiment: B-2. Action on recombinant guanylate cyclase reporter cell line
Assay type: cell-based
Details: MEC = minimal effective concentration; in some cases mean values from individual determinations
Outline: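 MEC values, meaning the lowest concentration producing a detectable response, were taken from a recombinant cyclase reporter cell assay. Where repeated, individual determinations were averaged.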

Structure (SMILES)	MEC [µM]
Cc1cc(OCc2c(F)cccc2F)c2nc(C)c(C(=O)NC(CN)c3cc(F)c(F)c(F)c3)n2c1 (racemic) [Example 390, rac-N-[2-amino-1-(3,4,5-trifluorophenyl)ethyl]-8-[(2,6-ifluorobenzyl)oxy]-2,6-dimethylimidazo[1,2-a]pyridine-3-carboxamide]	0.30
CSCCC(CN)NC(=O)c1c(C)nc2c(OCc3c(F)cccc3F)cc(C)cn12 (racemic) [Example 391, rac-N-[1-amino-4-(methylsulfanyl)butan-2-yl]-8-[(2,6-difluorobenzyl)oxy]-2,6-dimethylimidazo[1,2-a]pyridine-3-carboxamide]	0.10
Cc1cc(OCc2c(F)cccc2F)c2nc(C)c(C(=O)NC(CN)c3cccc(OC(F)F)c3)n2c1 (racemic) [Example 392, rac-N-{2-amino-1-[3-(difluoromethoxy)phenyl]ethyl}-8-[(2,6-difluorobenzyl)oxy]-2,6-dimethylimidazo[1,2-a]pyridine-3-carboxamide]	1.00
Cc1cc(OCc2c(F)cccc2F)c2nc(C)c(C(=O)NC(CN)c3cccc(OCCO)c3)n2c1 (racemic) [Example 393, rac-N-{2-amino-1-[3-(2-hydroxyethoxy)phenyl]ethyl}-8-[(2,6-difluorobenzyl)oxy]-2,6-dimethylimidazo[1,2-a]pyridine-3-carboxamide]	1.00
Cc1cc(OCc2c(F)cccc2F)c2nc(C)c(C(=O)NC(CN)c3cccc(C(F)(F)F)c3)n2c1 (racemic) [Example 394, rac-N-{2-amino-1-[3-(trifluoromethyl)phenyl]ethyl}-8-[(2,6-difluorobenzyl)oxy]-2,6-dimethylimidazo[1,2-a]pyridine-3-carboxamide]	0.30
Cc1cc(OCc2c(F)cccc2F)c2nc(C)c(C(=O)NC(CN)c3ccc4ncccc4c3)n2c1 (racemic) [Example 395, rac-N-[2-amino-1-(quinolin-6-yl)ethyl]-8-[(2,6-difluorobenzyl)oxy]-2,6-dimethylimidazo[1,2-a]pyridine-3-carboxamide]	1.00
CCOCC(CN)NC(=O)c1c(C)nc2c(OCc3c(F)cccc3F)cccn12 (single isomer, unassigned) [Example 56, ent-N-(1-amino-3-ethoxypropan-2-yl)-8-[(2,6-difluorobenzyl)oxy]-2-methylimidazo[1,2-a]-pyridine-3-carboxamide]	1.00
CCOCC(CN)NC(=O)c1c(C)nc2c(OCc3c(F)cccc3F)cc(Cl)cn12 (single isomer, unassigned) [Example 57, ent-N-(1-amino-3-ethoxypropan-2-yl)-6-chloro-8-[(2,6-difluorobenzyl)oxy]-2-methylimidazo[1,2-a]-pyridine-3-carboxamide]	0.30
Cc1nc2c(OCc3c(F)cccc3F)cccn2c1C(=O)NC(CN)COC(C)C (single isomer, unassigned) [Example 93, ent-N-(1-Amino-3-isopropoxypropan-2-yl)-8-[(2,6-difluorobenzyl)oxy]-2-methylimidazo[1,2-a]-pyridine-3-carboxamide]	0.30
Cc1nc2c(OCc3c(F)cccc3F)cccn2c1C(=O)NCC(C)CN (single isomer, unassigned) [Example 95, ent-N-(3-Amino-2-methylpropyl)-8-[(2,6-difluorobenzyl)oxy]-2-methylimidazo[1,2-a]pyridine-3-carboxamide Dihydrochloride]	1.00
Cc1nc2c(OCc3c(F)cccc3F)cccn2c1C(=O)NCC(C)CN (single isomer, unassigned) [Example 96, ent-N-(3-Amino-2-methylpropyl)-8-[(2,6-difluorobenzyl)oxy]-2-methylimidazo[1,2-a]pyridine-3-carboxamide Dihydrochloride]	1.00
COCC(CN)NC(=O)c1c(C)nc2c(OCc3c(F)cccc3F)cccn12 (single isomer, unassigned) [Example 122, ent-N-(1-Amino-3-methoxypropan-2-yl)-8-[(2,6-difluorobenzyl)oxy]-2-methylimidazo[1,2-a]-pyridine-3-carboxamide Ditrifluoroacetate]	1.00
COCC(CN)NC(=O)c1c(C)nc2c(OCc3c(F)cccc3F)cccn12 (single isomer, unassigned) [Example 123, ent-N-(1-Amino-3-methoxypropan-2-yl)-8-[(2,6-difluorobenzyl)oxy]-2-methylimidazo[1,2-a]-pyridine-3-carboxamide Ditrifluoroacetate]	3.00

The remaining lines, values ahead:

MEC [µM]	Structure (SMILES)
3.00	CC(=O)Nc1cccc(C(CN)NC(=O)c2c(C)nc3c(OCc4c(F)cccc4F)cc(C)cn23)c1 (racemic) [Example 396, rac-N-[1-(3-acetamidophenyl)-2-aminoethyl]-8-[(2,6-difluorobenzyl)oxy]-2,6-dimethylimidazo[1,2-a]pyridine-3-carboxamide]
1.00	CCOC(=O)c1cccc(C(CN)NC(=O)c2c(C)nc3c(OCc4c(F)cccc4F)cc(C)cn23)n1 (racemic) [Example 397, rac-ethyl 6-{2-amino-1-[({8-[(2,6-difluorobenzyl)oxy]-2,6-dimethylimidazo[1,2-a]pyridin-3-yl}carbonyl)amino]ethyl}pyridine-2-carboxylate]
0.30	Cc1cc(OCc2c(F)cccc2F)c2nc(C)c(C(=O)NC(CN)c3ccc(C#N)cc3)n2c1 (racemic) [Example 398, rac-N-[2-amino-1-(4-cyanophenyl)ethyl]-8-[(2,6-difluorobenzyl)oxy]-2,6-dimethylimidazo[1,2-a]pyridine-3-carboxamide]
1.00	COC(=O)c1cccc(C(N)CNC(=O)c2c(C)nc3c(OCc4c(F)cccc4F)cc(C)cn23)c1 (racemic) [Example 399, rac-Methyl 3-{1-amino-2-[({8-[(2,6-difluorobenzyl)oxy]-2,6-dimethylimidazo[1,2-a]pyridin-3-yl}carbonyl)amino]ethyl}benzoate]
0.65	Cc1cc(OCc2c(F)cccc2F)c2nc(C)c(C(=O)NCC(N)C#N)n2c1 (racemic) [Example 400, rac-N-(2-amino-2-cyanoethyl)-8-[(2,6-difluorobenzyl)oxy]-2,6-dimethylimidazo[1,2-a]pyridine-3-carboxamide]
0.10	CC=CCC(N)CNC(=O)c1c(C)nc2c(OCc3c(F)cccc3F)cc(C)cn12 (racemic) [Example 406, rac-N-[(4E/Z)-2-aminohex-4-en-1-yl]-8-[(2,6-difluorobenzyl)oxy]-2,6-dimethylimidazo[1,2-a]pyridine-3-carboxamide]
0.10	CSCCC(N)CNC(=O)c1c(C)nc2c(OCc3c(F)cccc3F)cc(C)cn12 (racemic) [Example 412, rac-N-[2-amino-4-(methylsulfanyl)butyl]-8-[(2,6-difluorobenzyl)oxy]-2,6-dimethylimidazo[1,2-a]pyridine-3-carboxamide]
5.5	Cc1cc(OCc2c(F)cccc2F)c2nc(C)c(C(=O)NCC(N)CCS(C)(=O)=O)n2c1 (racemic) [Example 413, rac-N-[2-amino-4-(methylsulfonyl)butyl]-8-[(2,6-difluorobenzyl)oxy]-2,6-dimethylimidazo[1,2-a]pyridine-3-carboxamide]
0.30	Cc1cc(OCc2c(F)cccc2F)c2nc(C)c(C(=O)NCC3CS(=O)(=O)CCN3)n2c1 (racemic) [Example 414, rac-8-[(2,6-difluorobenzyl)oxy]-N-[(1,1-dioxidothiomorpholin-3-yl)methyl]-2,6-dimethylimidazo[1,2-a]pyridine-3-carboxamide]
5.5	Cc1cc(OCc2c(F)cccc2F)c2nc(C)c(C(=O)NCC(N)c3csc(C)n3)n2c1 (racemic) [Example 415, rac-N-[2-amino-2-(2-methyl-1,3-thiazol-4-yl)ethyl]-8-[(2,6-difluorobenzyl)oxy]-2,6-dimethylimidazo[1,2-a]pyridine-3-carboxamide Triformate]
1.00	Cc1cc(OCc2c(F)cccc2F)c2nc(C)c(C(=O)NC(C#N)CN)n2c1 (racemic) [Example 416, rac-N-(2-amino-1-cyanoethyl)-8-[(2,6-difluorobenzyl)oxy]-2,6-dimethylimidazo[1,2-a]pyridine-3-carboxamide]
